Data on six compounds can be found in patent US3944498A, “Germicidal detergent containing a thienyliodonium salt” (The Dow Chemical Company, priority 1973, dated 1976).

Data set [1] relates to S. typhosa. Kind of data set: Agar plate kill test with Ivory soap, S. typhosa. The format is cell-based. The note with it: 48 h, read-out: Percent Kill of S. Typhosa. The method, then:
(§1) Phenyl-2-thienyliodonium chloride, 2,2'-bisthienyliodonium chloride, and, for comparative purposes, diphenyliodonium chloride are individually dispersed in Ivory soap to provide concentrates containing 1 part by weight of iodonium salt to 50 parts by weight of soap. The soap concentrates are serially dispersed and serially diluted with liquid nutrient agar at 42°C. to prepare culture media containing various concentrations of one of the iodonium salts. The culture media are uniformly inoculated with S. aureus and plated in petri dishes. The inoculation is carried out from broth cultures of the named organism containing about 5×10^8 organisms per milliliter in the proportion of one-tenth milliliter of bacterial culture per 20 milliliters of cultur medium containing each test compound. In a check operation, nutrient agar containing the same amount of Ivory soap is similarly inoculated with the same organism. After two days' incubation at 37°C., the plates are examined for microbial growth.
The procedure described above is again repeated in a series of tests wherein the culture media are inoculated individually with the organism S. typhosa and wherein the culture media contain varying concentrations of one of the iodonium salts, as set forth in following Table II.

The next data set has as its system A. aerogenes. The experiment in a line: Agar plate kill test with Ivory soap, A. aerogenes. In kind it is cell-based. As to conditions: Klebsiella aerogenes, 48 h, Ivory soap, read-out: Percent Kill of A. aerogenes. The method, then: as §1
The procedure described above is repeated with varying concentrations of 4-chlorophenyl-2-thienyliodonium chloride, 3,4-dichlorophenyl-2-thienyliodonium chloride, and for comparative purposes bis(4-chlorophenyl)iodonium chloride, phenyl-4-chlorophenyliodonium chloride and bis(2,4-dichlorophenyl)iodoniumchloride in a series of tests wherein the culture media are inoculated individually with the organism A. aerogenes.
The procedure described above is once again repeated with each of 2,2'-bisthienyliodonium chloride, phenyl-2-thienyliodonium chloride, 4-bromophenyl-2-thienyliodonium chloride, bis(4-bromophenyl)iodonium chloride and bis(4-bromophenyl)iodonium bromide in a series of tests wherein the culture media are inoculated individually with the organism A. aerogenes.

Data set [2] has as its system S. aureus. Kind of data set: Agar plate kill test with Ivory soap, S. aureus. The format is cell-based. The note with it: 2 days, 37°C. The method, then:
as §1

Data set [3] relates to S. typhosa. The experiment in a line: Agar dilution MIC in absence of soap, S. typhosa. The format is cell-based. The note with it: read-out: Minimum growth inhibitory concentration, S. typhosa. The protocol:
(§2) The growth-inhibitory activity of the below-indicated compounds against some microorganisms most relevant to the human skin was determined by standard agar dilution techniques to provide the data given in following Table 1.
(§3) In Table 1, the first column gives the chemical structures of the test compounds, while the additional columns give the names of the test organisms and the minimum inhibitory concentration in parts per million (p.p.m.) of the compounds listed for 100% growth inhibition against the particular microorganisms indicated. […] For each p.p.m. of test compound, 50 p.p.m. of Ivory soap was also present in the culture medium for part A of Table 1, while in part B of Table 1, the culture medium was free of any additive other than the test compound. The data for compounds 13 through 16 of part B of Table 1 were taken from Cannon U.S. Pat. No. 3,207,660 while those for compounds 17 and 18 were taken from trade literature.
Background: Agar dilution tests growth on a series of plates holding different concentrations.

Data set [4] relates to S. aureus. Kind of data set: Agar dilution MIC in absence of soap, S. aureus. The format is cell-based. The note with it: Staphylococcus aureus; read-out: Minimum growth inhibitory concentration, S. aureus. The protocol:
as §2, §3

In data set [5] the test system is P. aeruginosa. Kind of data set: Agar dilution MIC in absence of soap, P. aeruginosa. In kind it is cell-based. As to conditions: Pseudomonas aeruginosa; read-out: Minimum growth inhibitory concentration, P. aeruginosa. The method, then: as §2, §3
The subject of a further data set is mice. The note with it: 12-15 from U.S. Pat. No. 3,207,660, 17, 18 from trade literature, cited from earlier work.
In data set [6] the test system is S. typhosa. The note with it: absence of soap; 17-18 from trade literature; cited from earlier work.
For data set [7], the system named is S. aureus. As to conditions: absence of soap; 13-16 from Cannon U.S. Pat. No. 3,207,660, 17-18 from trade literature; cited from earlier work.
The subject of data set [8] is P. aeruginosa. As to conditions: absence of soap, 13-16 from Cannon U.S. Pat. No. 3,207,660, 17-18 from trade literature, cited from earlier work.

Molecules are shown by their SMILES. Where two headings read alike, the source gives them in different places.

Take `c1csc([I+]c2cccs2)c1` [2,2'-bisthienyliodonium chloride]: the killing at 5 ppm in the data set on S. typhosa [1] amounted to 100%; in the data set on A. aerogenes (5 p.p.m.), 100%; in the data set with S. aureus [2] (Staphylococcus aureus, 48 h, 5 p.p.m., read-out: percent kill of S. aureus), 100%.
On to `COc1ccc([I+]c2cccc(C(F)(F)F)c2)cc1` [Compound 11 (Table 1)], for which the figures for the MIC in the data set with S. typhosa [3], in the data set on S. aureus [4] and with P. aeruginosa [5] were 100 µg/mL, 10 µg/mL and 500 µg/mL, respectively.
The corresponding values for `FC(F)(F)c1cccc([I+]c2cccs2)c1` [Compound 12 (Table 1)] are 10 µg/mL, below 1 µg/mL and 50 µg/mL.
Regarding `Oc1cc(Cl)ccc1Oc1ccc(Cl)cc1Cl` [Irgasan], the figures for the “Oral LD50 (mice)” value with mice and with mice (listed as Compound 17 (Table 2)) were 4,000 mg/kg and 4000 mg/kg, respectively. The “Minimum growth inhibitory concentration, S. typhosa” value in the data set with S. typhosa [6] is reported as 1 ppm. In addition, the “Minimum growth inhibitory concentration, S. aureus” value in the data set with S. aureus [7] was 1 ppm. The figures for the “Minimum growth inhibitory concentration, P. aeruginosa” value in the data set with P. aeruginosa [8] and in the data set with P. aeruginosa [8] (listed as Compound 18 (Table 1)) were “more than 300 ppm” and above 300 ppm, respectively.
As to `[Cl-].c1ccc([I+]c2ccccc2)cc1` [diphenyliodonium chloride, reference compound], in the data set on S. typhosa [1] (500 p.p.m., Ivory soap), the killing at 500 ppm turned out to be 0%. Also, the “growth of S. aureus” value in the data set with S. aureus [2] (500 p.p.m.) is reported as “heavy uniform growth”.
As to `c1ccc([I+]c2cccs2)cc1` [phenyl-2-thienyliodonium chloride, Phenyl-2-thienyliodonium chloride], the killing at […] was determined as 100% in the data set with S. typhosa [1]; 100% in the data set on A. aerogenes (2.5 p.p.m.); 100% with S. aureus [2] (Staphylococcus aureus, 48 h, 2.5 p.p.m., read-out: percent kill of S. aureus).
